Experimental data: patent US11116757B2 (priority 2015, dated 2021)

The molecules below were run against DCN1-UBC12 interaction (Homo sapiens (Human), UniProt Q96GG9) (assay: biochemical). Conditions: TR-FRET IC50.
Format: binding

DCN1-UBC12 interaction, sequence (Q96GG9 60-248 limits assumed): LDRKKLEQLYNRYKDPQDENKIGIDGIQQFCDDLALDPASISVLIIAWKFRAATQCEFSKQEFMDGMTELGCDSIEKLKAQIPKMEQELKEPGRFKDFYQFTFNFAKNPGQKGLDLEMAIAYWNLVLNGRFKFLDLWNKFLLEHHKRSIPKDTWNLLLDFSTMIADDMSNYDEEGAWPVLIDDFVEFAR

Row | Molecule | IC50 [µM]
1 | COc1ccccc1CN1CCC(N(Cc2ccccc2)C(=O)Nc2cc(F)cc(C(F)(F)F)c2)CC1 [A224] | > 25.3
2 | CCCC(C)N1CCC(N(Cc2ccccc2)C(=O)Nc2cccc(Cl)c2)CC1 (centres unmarked) [A35] | 0.203

Same assay, conditions: Table 4, commercial compounds; read-out: TR-FRET IC50

Row | Molecule | IC50 [µM]
3 | O=C(Nc1ccc(Cl)c(C(F)(F)F)c1)C1CCN(C(=O)c2ccc(Br)cc2)CC1 [C29] | > 67.6
4 | O=C(Nc1cccc(F)c1)C1CCN(C(=O)c2cnn(-c3ccccc3)c2-n2cccc2)CC1 [C50] | > 67.6
5 | COc1cccc(NC(=O)C2CCN(C(=O)c3cccc(F)c3)CC2)c1 [C43] | > 67.6
6 | O=C(Nc1cccc(C(F)(F)F)c1)C1CCN(C(=O)/C=C/c2ccccc2)CC1 [C57] | > 67.6
7 | CSc1cccc(NC(=O)C2CCN(C(=O)c3ccccc3C)CC2)c1 [C5] | 30.1
8 | CCc1cccc(NC(=O)C2CCN(C(C)=O)CC2)c1 [C32] | > 67.6
9 | O=C(Nc1ccc(C(F)(F)F)cc1)C1CCN(C(=O)c2ccccc2F)CC1 [C65] | > 68.1
10 | Cc1ccc(C(=O)N2CCC(C(=O)Nc3ccc(Cl)c(C(F)(F)F)c3)CC2)cc1 [C26] | > 67.6
11 | CSc1cccc(NC(=O)C2CCN(C(=O)c3ccc(F)cc3)CC2)c1 [C4] | 26.3

Same assay, conditions: Table 6, commercial compounds; read-out: TR-FRET IC50

Row | Molecule | IC50 [µM]
12 | Cc1c(C(=O)N2CCN(C)CC2)cnn1-c1nccc(-c2cccs2)n1 [E49] | > 67.6
13 | Cc1cnc(-n2ncc(C(=O)NCCC(C)C)c2C)nc1-c1cccs1 [E29] | > 67.6
14 | CCN(CC)CCNC(=O)c1cnn(-c2ncc(C)c(-c3cccs3)n2)c1C1CC1 [E28] | > 37.4
15 | CC(C)N1CCN(C(=O)c2cnn(-c3nccc(-c4cccs4)n3)c2C2CC2)CC1 [E43] | > 67.6
16 | CCN1CCN(C(=O)c2cnn(-c3nccc(-c4cccs4)n3)c2C(C)C)CC1 [E4] | 13.1
17 | CCN(CC)CCN(CC)C(=O)c1cnn(-c2ncc3c(n2)-c2ccccc2CC3)c1C1CC1 [E9] | 23.1
18 | Cc1cnc(-n2ncc(C(=O)N(C)CC(C)C)c2C)nc1-c1cccs1 [E41] | > 67.6
19 | CCOc1ccccc1N1CCN(C(=O)c2cnn(-c3nccc(-c4ccco4)n3)c2C)CC1 [E10] | 25
20 | CC(C)c1c(C(=O)N2CCN(CCO)CC2)cnn1-c1nccc(-c2cccs2)n1 [E7] | 21.3
21 | CCCN1CCN(C(=O)c2cnn(-c3ncc(C)c(-c4cccs4)n3)c2COC)CC1 [E11] | 26

Same assay, conditions: Table 7, commercial compounds; read-out: TR-FRET IC50

Row | Molecule | IC50 [µM]
22 | CCc1ccc(C2c3c(C)nn(C)c3NC(=O)C2NC(=O)c2ccc(OC)c(OC)c2)cc1 (centres unmarked) [F24] | > 67.6
23 | Cc1nn(C)c2c1C(c1cccc(F)c1)C(NC(=O)c1ccc(Cl)cc1)C(=O)N2 (centres unmarked) [F10] | > 67.6
24 | COc1ccc(C2c3c(C)nn(C)c3NC(=O)C2NC(=O)c2ccc(Cl)cc2)cc1F (centres unmarked) [F31] | > 67.6
25 | CCCOc1cc(C2c3c(C)nn(C)c3NC(=O)C2NC(=O)c2ccc(Cl)cc2)ccc1OC (centres unmarked) [F9] | > 67.6
26 | Cc1cccc(C(=O)NC2C(=O)Nc3c(c(C)nn3C)C2c2ccc(C(C)(C)C)cc2)c1 (centres unmarked) [F13] | > 67.6

Same assay, conditions: read-out: TR-FRET IC50

Row | Molecule | IC50 [µM]
27 | CCCC(C)N1CCC(N(Cc2ccccc2)C(=O)Nc2ccc(Cl)c(C(F)(F)F)c2)CC1 (centres unmarked) [A64] | 0.414
28 | C=CS(=O)(=O)NCc1cccc(CN(C(=O)Nc2cccc(C(F)(F)F)c2)C2CCN(C(C)CCC)CC2)c1 (centres unmarked) [drawing 849] | < 0.01
29 | O=C(Nc1cccc(C(F)(F)F)c1)NC1CCN(Cc2ccc(F)cc2)CC1 [A172, 1-(1-(4-Fluorobenzyl)Piperidin-4-yl)-3-(3-(Trifluoromethyl)Phenyl)Urea] | 12.9
30 | COc1ccc(CN(C(=O)Nc2ccc(Cl)cc2)C2CCN(C(C)=O)CC2)cc1 [B81] | > 67.6
31 | O=C(Nc1ccc2c(c1)OCCO2)N(Cc1ccco1)C1CCN(Cc2ccccc2)CC1 [B115] | > 74.6
32 | Cc1ccc(NC(=O)NC2CCN(Cc3ccccc3)CC2)cc1Cl [B59, 1-(1-Benzylpiperidin-4-yl)-3-(3-Chloro-4-Methylphenyl)Urea] | > 67.6
33 | COc1ccc(C)cc1NC(=O)N(Cc1ccc(C)o1)C1CCN(Cc2ccccc2)CC1 [B95] | > 67.6
34 | Cn1ccnc1CN1CCC(N(Cc2ccccc2)C(=O)Nc2cc(F)cc(C(F)(F)F)c2)CC1 [A229] | > 28.6
35 | CCCCN1CCC(N(Cc2ccccc2)C(=O)Nc2cccc(C(F)(F)F)c2F)CC1 [A70] | 0.583
36 | CC(=O)N1CCC(N(Cc2ccco2)C(=O)Nc2cccc(C(F)(F)F)c2)CC1 [B10] | 20.2
37 | COc1ccc(CN(C(=O)Nc2ccccc2Cl)C2CCN(C(C)=O)CC2)cc1 [B13] | 37.5
38 | CCCC(C)N1CCC(N(Cc2ccccc2)C(=O)Nc2ccc(C(=O)OC)cc2)CC1 (centres unmarked) [A163] | 8.42
39 | CCCC(C)N1CCC(N(Cc2ccccc2)C(=O)Nc2ccc(Cl)cc2C#N)CC1 (centres unmarked) [A141] | 4.22
40 | COc1cc(CN2CCC(NC(=O)Nc3cccc(C)c3)CC2)cc(OC)c1OC [B12] | 29.3
41 | CCCC(C)N1CCC(N(CCNC(=O)CCl)C(=O)Nc2cccc(C(F)(F)F)c2)CC1 (centres unmarked) [A251] | > 59.9
42 | CC(=O)N1CCC(N(Cc2ccco2)C(=O)Nc2ccccc2C(F)(F)F)CC1 [B76] | > 67.6
43 | COC(=O)[C@@H]1C[C@@H](NC(=O)Nc2ccccc2)CN1Cc1ccccc1C(F)(F)F [B99] | > 68
44 | CCCC(C)N1CCC(N(Cc2ccccc2)C(=O)Nc2ccccc2N2CCOCC2)CC1 (centres unmarked) [A243] | > 52.8
45 | CC(=O)N1CCC(N(Cc2ccco2)C(=O)Nc2ccc(Br)c(C)c2)CC1 [B18] | 64.1
46 | Cc1ccc(CN(C(=O)Nc2ccccc2Br)C2CCN(Cc3ccccc3)CC2)o1 [B91] | > 67.6
47 | CCCC(C)N1CCC(N(Cc2ccccc2)C(=O)Nc2cccc(SC)c2)CC1 (centres unmarked) [A44] | 0.254

Row | Molecule | IC50 [µM]
48 | CC(Cc1cccc(C(F)(F)F)c1)NC1CCN(Cc2ccccc2)CC1 (centres unmarked) [B38] | > 61.3
49 | O=C(c1ccc(F)cc1)N1CCC(c2nc3ccccc3s2)CC1 [D15] | > 46.2
50 | CCCC(C)N1CCC(N(Cc2ccccc2)C(=O)Nc2ccc(Oc3ccncc3)cc2)CC1 (centres unmarked) [A69] | 0.567
51 | C=CS(=O)(=O)NCCN(C(=O)Nc1cccc(C(F)(F)F)c1)C1CCN(C(C)CCC)CC1 (centres unmarked) [drawing 839] | > 41
52 | CCCCCN1CCC(N(Cc2ccccc2)C(=O)Nc2cc(F)cc(C(F)(F)F)c2)CC1 [A124] | 1.59
53 | 1-Benzyl-1-(1-(Pentan-2-yl)Piperidin-4-yl)-3-(3-(Trifluoromethyl)Phenyl)Urea [A293] | > 78.2
54 | CCCC(C)N1CCC(N(Cc2ccccc2)C(=O)Nc2ccc(Cl)cc2F)CC1 (centres unmarked) [A91] | 1.19
55 | C#CCCCN1CCC(N(Cc2ccccc2NC(=O)CCl)C(=O)Nc2cccc(C(F)(F)F)c2)CC1 [A253] | > 6.89
56 | CCCC(C)N1CCC(N(Cc2ccccc2)C(=O)Nc2cccc(OCc3ccccc3)c2)CC1 (centres unmarked) [A94] | 1.29
57 | O=C(c1ccc(I)cc1)N1CCCC(c2nc3ccccc3s2)C1 (centres unmarked) [D31] | > 67.6
58 | CCCC(C)N1CCC(N(Cc2ccccc2)C(=O)Nc2cccc(OC(C)C)c2)CC1 (centres unmarked) [A132] | 3.17
59 | CCCC(C)N1CCC(N(Cc2cccc(NC(=O)CCl)c2)C(=O)Nc2cccc(C(F)(F)F)c2)CC1 (centres unmarked) [drawing 842] | 0.095
60 | CCCC(C)N1CCC(N(Cc2ccccc2)C(=O)Nc2ccc3ncccc3c2)CC1 (centres unmarked) [A207] | > 21
61 | O=C(Nc1ccn(Cc2ccccn2)n1)NC1CCN(Cc2ccccc2)CC1 [B33] | > 55.4
62 | CCCC(C)N1CCC(N(Cc2ccccc2)C(=O)Nc2ccc(C3CCCCC3)cc2)CC1 (centres unmarked) [A110] | 2.21
63 | CCCC(C)N1CCC(N(Cc2ccccc2)C(=O)Nc2cccc([N+](=O)[O-])c2C)CC1 (centres unmarked) [A161] | 7.94
64 | CCN1CCC(NC(=O)Nc2cc(Cl)ccc2Cl)CC1 [B54] | > 67.6
65 | CCCC(C)N1CCC(N(Cc2ccccc2)C(=O)Nc2ccc(O)cc2C)CC1 (centres unmarked) [A115] | 2.36
66 | O=C(CN1CCN(Cc2ccccc2)CC1)Nc1cc(C(F)(F)F)ccc1Cl [B113] | > 74
67 | Cc1ccc(CN2CCC(N(Cc3ccccc3)C(=O)Nc3cc(F)cc(C(F)(F)F)c3)CC2)o1 [A219] | > 24.2
68 | CCCC(C)N1CCC(N(Cc2ccccc2)C(=O)Nc2c(C)cc(Br)cc2C)CC1 (centres unmarked) [A265] | > 65.7

Row | Molecule | IC50 [µM]
69 | CCCCN1CCC(N(Cc2ccccc2)C(=O)Nc2ccc(F)c(C(F)(F)F)c2)CC1 [A26] | 0.163
70 | O=C(Nc1cccc(I)c1)NC1CCN(Cc2ccccc2)CC1 [B98] | > 67.6
71 | CC(c1ccccn1)N1CCC(N(Cc2ccccc2)C(=O)Nc2cc(F)cc(C(F)(F)F)c2)CC1 (centres unmarked) [A145] | 4.57
72 | O=C(NCCN1CCN(Cc2ccccc2C(F)(F)F)CC1)Nc1ccccc1 [B48] | > 67
73 | CCN1CCC(N(Cc2ccco2)C(=O)Nc2ccc(C)c(Cl)c2)CC1 [B6] | 6.85
74 | O=C(c1ccc(Cl)cc1)N1CCC(c2nc3ccccc3s2)CC1 [D20] | > 67.3
75 | CCCC(C)N1CCC(N(Cc2ccccc2)C(=O)Nc2cccc(F)c2)CC1 (centres unmarked) [A72] | 0.621
76 | O=C(Nc1cc(F)cc(C(F)(F)F)c1)N(Cc1ccccc1)C1CCN(Cc2nc3ccccc3s2)CC1 [A222] | > 25.2
77 | CC1CN(Cc2ccccc2)CCC1N(C)C(=O)Nc1cn[nH]c1 (centres unmarked) [B24] | > 15.2
78 | COc1ccccc1NC(=O)N(Cc1ccco1)C1CCN(C(C)=O)CC1 [B68] | > 67.6
79 | COc1cccc(C(=O)N2CCC(c3nc4ccccc4s3)CC2)c1 [D14] | 66.4
80 | CCCc1ccc(NC(=O)N(Cc2ccccc2)C2CCN(C(C)CCC)CC2)cc1 (centres unmarked) [A66] | 0.47
81 | CCCC(C)N1CCC(N(Cc2ccc3c(c2)OCO3)C(=O)Nc2cc(F)cc(C(F)(F)F)c2)CC1 (centres unmarked) [A51] | 0.273
82 | CCCC(C)N1CCC(N(Cc2ccccc2)C(=O)Nc2ccc(Cl)c(Cl)c2)CC1 (centres unmarked) [A46] | 0.257
83 | O=C(c1ccc(Br)cc1)N1CCC(c2nc3ccccc3s2)CC1 [D9] | 21.8
84 | O=C(Nc1cc(F)cc(C(F)(F)F)c1)N(Cc1ccccc1)C1CCN(Cc2csc3ccccc23)CC1 [A212] | > 22.5
85 | C#CCCCN1CCC(N(Cc2ccccc2NC(=O)CCl)C(=O)Nc2ccc(Cl)c(Cl)c2)CC1 [A252] | > 6.46
86 | O=C(c1ccc(F)cc1F)N1CCC(c2nc3ccccc3s2)CC1 [D11] | 30.6
87 | CCCCN1CCC(N(Cc2ccccc2)C(=O)Nc2cncc(C(F)(F)F)c2)CC1 [A262] | > 63.4
88 | CCCC(C)N1CCC(N(Cc2ccccc2)C(=O)Nc2ccc(OC)cc2OC)CC1 (centres unmarked) [A196] | > 11.8
89 | CCCC(C)N1CCC(N(Cc2ccccc2)C(=O)Nc2cc(Br)ccc2Cl)CC1 (centres unmarked) [A267] | > 66.9
